{"source": "patent US20200121704A1", "about": "“METHODS FOR TREATING HYPERTENSION AND ARTERIAL STIFFNESS” (THE REGENTS OF THE UNIVERSITY OF COLORADO, A BODY CORPORATE, priority 2017, published 2020)", "format_in_all_cases": "in vivo, human", "key": {"Total lipid panel": {"assay": "Total lipid panel", "protocol": "(§1) Sixty subjects were consented for this study. This study was conducted in the Integrative Physiology of Aging Laboratory and the Clinical and Translational Research Center (CTRC) at the University of Colorado Boulder. All blood assays were performed at either Boulder Community Hospital or the University of Colorado Denver Anschutz Medical Campus CTRC Core Laboratory. All testing sessions were performed after an overnight fast and 24-hour abstention from exercise and alcohol consumption. All subjects refrained from all prescription medications for 24 hours and over the counter medications for 48 hours prior to all testing visits.\nClinical laboratory values were obtained from blood samples collected at the end of each intervention phase in 21 subjects. Complete blood work was not obtained in three subjects due to a failed catheterization during at least one of the testing phases."}, "[1]": {"tested_on": "healthy middle-aged and older adults", "assay": "Treatment-emergent adverse events and tolerability, randomized double blinded placebo controlled crossover study", "protocol": "The inventors hypothesized that oral supplementation with the nicotinamide adenine dinucleotide (NAD+) increasing compound, nicotinamide riboside (NR) would reduce blood pressure (BP) and aortic pulse wave velocity (aPWV, a measure of large elastic artery stiffness). This hypothesis was tested in healthy middle-aged and older human adults (65±2 yrs, n=24) in a randomized, placebo-controlled crossover study.\nas §1\nA randomized, double blinded, placebo controlled crossover design was implemented for this study. Healthy middle-aged and older (55-79 years) adult men and postmenopausal women were recruited from the Boulder/Denver metro area. Subjects were nonsmokers and free of clinical diseases as assessed by a medical history, physical examination, blood chemistry and resting and exercise ECG. […] Four subjects dropped out of the study prior to randomization due to time commitment and one subject was unresponsive to scheduling requests resulting in a total of 30 remaining subjects for randomization. Of these, fifteen subjects were randomized to Group A, which received placebo pills during the first 6 weeks of the study before crossing over to receive NR pills for 6 weeks. The remaining fifteen subjects were randomized to Group B, which received NR pills first followed by placebo. One subject was excluded from Group A due to a change in medication status that no longer met inclusion criteria and two subjects in Group A dropped out of the study due to a complaint of side effects. Two subjects were excluded from Group B due to a change in health or medication status that no longer met inclusion criteria and one subject dropped out of Group B due to a broken ankle, resulting in a total of 24 subjects who completed the trial (FIG. 1). These subjects were well matched by age, sex and baseline characteristics between groups and all baseline values were within normal clinical ranges, as shown in Table 1:\n14 treatment-emergent adverse events (AEs) were reported by 7 of the 30 participants enrolled in the study."}, "endothelin-1 (ET-1)": {"tested_on": "endothelin-1 (ET-1)", "assay": "Circulating endothelin-1 concentration", "conditions": "compared with placebo", "source_text": "To gain potential insight into the underlying mechanisms by which nicotinamide riboside lowers blood pressure, we assessed plasma concentrations of endothelin-1 (ET-1), a potent vasoconstrictor that is released by the vascular endothelium to regulate vascular smooth muscle tone. […] Thus, nicotinamide riboside may lower blood pressure and arterial stiffness by suppressing ET-1-mediated vasoconstriction."}, "PBMCs": {"tested_on": "PBMCs", "assay": "NAD+ and related metabolites in PBMCs", "source_text": "Oral NR supplementation effectively elevated levels of NAD^+ in PBMCs by about 60% compared with placebo (mean change=6.2 pMol/mg protein) (Table 6). […] Of note, NR also elevated levels of nicotinic acid adenine dinucleotide (NAAD) nearly 5-fold above the placebo condition. […] Though not significant, we also observed an ˜1.5-fold increase in nicotinamide mononucleotide (NMN; mean change=0.72 pMol/mg protein), which may indicate the possible conversion of NR to NMN by nicotinamide riboside kinase (NRK) enzymes or further metabolism of NaM into NMN by nicotinamide phosphoribosyltransferase (NAMPT). […] Collectively, these findings indicate that chronic NR supplementation effectively stimulates NAD^+ metabolism in healthy middle-aged and older men and women."}, "[2]": {"conditions": "end of 6-week phase, mean ± SEM, 21 subjects"}, "[3]": {"conditions": "PBMCs, NR condition, mean ± SD, N = 21"}, "[4]": {"conditions": "PBMCs, NR condition, mean ± SD, N = 21, *p < 0.05"}, "[5]": {"conditions": "PBMCs, did not reach statistical significance"}}, "data": [{"smiles": "NC(=O)c1ccc[n+]([C@@H]2O[C@H](CO)[C@@H](O)[C@H]2O)c1", "note": "[NR, nicotinamide riboside]", "values": [{"measurement": "Difference between treatment conditions for blood lipid profiles", "setting": "Total lipid panel; NR vs placebo", "value": "No meaningful differences"}, {"measurement": "HDL-C", "setting": "Total lipid panel; [2]", "value": "60 ± 5", "unit": "mg/dL"}, {"measurement": "LDL-C", "setting": "Total lipid panel; [2]", "value": "94 ± 5", "unit": "mg/dL"}, {"measurement": "N-HDL-C", "setting": "Total lipid panel; [2]", "value": "111 ± 6", "unit": "mg/dL"}, {"measurement": "Total cholesterol", "setting": "Total lipid panel; [2]", "value": "171 ± 6", "unit": "mg/dL"}, {"measurement": "Triglycerides", "setting": "Total lipid panel; [2]", "value": "90 ± 14", "unit": "mg/dL"}, {"measurement": "VLDL-C", "setting": "Total lipid panel; [2]", "value": "17 ± 3", "unit": "mg/dL"}, {"measurement": "Drowsiness, # events", "setting": "[1]; NR condition, 6 weeks oral", "value": "0 (0)"}, {"measurement": "Drowsiness, # events/patient", "setting": "[1]; NR condition, 6 weeks oral", "value": "0 (0)"}, {"measurement": "Fainting, # events", "setting": "[1]; NR condition, 6 weeks oral", "value": "0 (0)"}, {"measurement": "Fainting, # events/patient", "setting": "[1]; NR condition, 6 weeks oral", "value": "0 (0)"}, {"measurement": "Flushing/Hot flashes, # events", "setting": "[1]; NR condition, 6 weeks oral", "value": "1 (1)"}, {"measurement": "Flushing/Hot flashes, # events/patient", "setting": "[1]; NR condition, 6 weeks oral", "value": "1 (1)"}, {"measurement": "Headache, # events", "setting": "[1]; NR condition, 6 weeks oral", "value": "0 (0)"}, {"measurement": "Headache, # events/patient", "setting": "[1]; NR condition, 6 weeks oral", "value": "0 (0)"}, {"measurement": "Increased Bruising, # events", "setting": "[1]; NR condition, 6 weeks oral", "value": "1 (1)"}, {"measurement": "Increased Bruising, # events/patient", "setting": "[1]; NR condition, 6 weeks oral", "value": "1 (1)"}, {"measurement": "Leg cramps, # events", "setting": "[1]; NR condition, 6 weeks oral", "value": "1 (1)"}, {"measurement": "Leg cramps, # events/patient", "setting": "[1]; NR condition, 6 weeks oral", "value": "1 (1)"}, {"measurement": "Nausea, # events", "setting": "[1]; NR condition, 6 weeks oral", "value": "1 (1)"}, {"measurement": "Nausea, # events/patient", "setting": "[1]; NR condition, 6 weeks oral", "value": "1 (1)"}, {"measurement": "Skin Rash, # events", "setting": "[1]; NR condition, 6 weeks oral", "value": "1 (1)"}, {"measurement": "Skin Rash, # events/patient", "setting": "[1]; NR condition, 6 weeks oral", "value": "1 (1)"}, {"measurement": "Severity of adverse events", "setting": "[1]; all AEs", "value": "mild in severity"}, {"measurement": "Tolerability", "setting": "[1]; at the dose tested", "value": "well tolerated"}, {"measurement": "Severe adverse events", "setting": "[1]; during the study", "value": "No severe adverse events occurred"}, {"measurement": "Association of flushing with supplementation", "setting": "[1]; flushing reported in both placebo and NR conditions", "value": "unlikely associated with NR supplementation"}, {"measurement": "Serum ET-1 concentrations", "setting": "endothelin-1 (ET-1)", "value": "lowers serum ET-1 concentrations"}, {"measurement": "Elevation of NAAD above the placebo condition", "setting": "PBMCs; PBMCs", "value": "~5", "unit": "fold"}, {"measurement": "NR", "setting": "PBMCs; PBMCs, NR condition, N = 21", "value": "<LOQ"}, {"measurement": "2-3 cAMP", "setting": "PBMCs; [3]", "value": "0.0 ± 0.0", "unit": "pMol/mg protein"}, {"measurement": "3-5 cAMP", "setting": "PBMCs; [3]", "value": "0.0 ± 0.0", "unit": "pMol/mg protein"}, {"measurement": "ADP", "setting": "PBMCs; [3]", "value": "1133.8 ± 1880.4", "unit": "pMol/mg protein"}, {"measurement": "AMP", "setting": "PBMCs; [3]", "value": "770.8 ± 1884.3", "unit": "pMol/mg protein"}, {"measurement": "CDP", "setting": "PBMCs; [3]", "value": "67.7 ± 113.1", "unit": "pMol/mg protein"}, {"measurement": "CMP", "setting": "PBMCs; [3]", "value": "137.2 ± 366.0", "unit": "pMol/mg protein"}, {"measurement": "CTP", "setting": "PBMCs; [3]", "value": "41.0 ± 68.4", "unit": "pMol/mg protein"}, {"measurement": "Cytidine", "setting": "PBMCs; [3]", "value": "4.7 ± 6.6", "unit": "pMol/mg protein"}, {"measurement": "FAD", "setting": "PBMCs; [3]", "value": "10.2 ± 5.9", "unit": "pMol/mg protein"}, {"measurement": "GDP", "setting": "PBMCs; [3]", "value": "198.4 ± 329.0", "unit": "pMol/mg protein"}, {"measurement": "GMP", "setting": "PBMCs; [3]", "value": "1010.1 ± 2114.8", "unit": "pMol/mg protein"}, {"measurement": "GTP", "setting": "PBMCs; [3]", "value": "327.1 ± 119.1", "unit": "pMol/mg protein"}, {"measurement": "Guanosine", "setting": "PBMCs; [3]", "value": "0.5 ± 1.5", "unit": "pMol/mg protein"}, {"measurement": "NADP", "setting": "PBMCs; [3]", "value": "8.9 ± 8.7", "unit": "pMol/mg protein"}, {"measurement": "NMN", "setting": "PBMCs; [3]", "value": "1.2 ± 3.3", "unit": "pMol/mg protein"}, {"measurement": "NaM", "setting": "PBMCs; [3]", "value": "383.8 ± 282.7", "unit": "pMol/mg protein"}, {"measurement": "UDP", "setting": "PBMCs; [3]", "value": "270.0 ± 420.7", "unit": "pMol/mg protein"}, {"measurement": "UMP", "setting": "PBMCs; [3]", "value": "1113.7 ± 2374.2", "unit": "pMol/mg protein"}, {"measurement": "UTP", "setting": "PBMCs; [3]", "value": "340.3 ± 150.1", "unit": "pMol/mg protein"}, {"measurement": "Uridine", "setting": "PBMCs; [3]", "value": "278.3 ± 718.4", "unit": "pMol/mg protein"}, {"measurement": "cCMP", "setting": "PBMCs; [3]", "value": "1.8 ± 8.4", "unit": "pMol/mg protein"}, {"measurement": "cGMP", "setting": "PBMCs; [3]", "value": "0.0 ± 0.0", "unit": "pMol/mg protein"}, {"measurement": "ATP", "setting": "PBMCs; [4]", "value": "2435.7 ± 1230.3* pMol/mg protein"}, {"measurement": "Adenosine", "setting": "PBMCs; [4]", "value": "14.4 ± 9.7* pMol/mg protein"}, {"measurement": "NAAD", "setting": "PBMCs; [4]", "value": "1.4 ± 2.2* pMol/mg protein"}, {"measurement": "NAD+", "setting": "PBMCs; [4]", "value": "16.2 ± 14.1* pMol/mg protein"}, {"measurement": "ATP mean change", "setting": "PBMCs; PBMCs, NR vs placebo", "value": 699, "unit": "pMol/mg protein"}, {"measurement": "Mean concentration of adenosine", "setting": "PBMCs; PBMCs, NR vs placebo", "value": "increases in the mean concentration"}, {"measurement": "Mean concentration of nicotinamide (NaM)", "setting": "PBMCs; PBMCs, NR vs placebo", "value": "elevated the mean concentration of nicotinamide (NaM), but this was not statistically significant"}, {"measurement": "Mean level of NADP+", "setting": "PBMCs; PBMCs, NR vs placebo", "value": "increased, but did not reach statistical significance"}, {"measurement": "NAD+ mean change", "setting": "PBMCs; PBMCs, NR vs placebo", "value": 6.2, "unit": "pMol/mg protein"}, {"measurement": "NMN mean change", "setting": "PBMCs; PBMCs, NR vs placebo", "value": 0.72, "unit": "pMol/mg protein"}, {"measurement": "Levels of adenosine diphosphate (ADP)", "setting": "PBMCs; [5]", "value": "tended to raise"}, {"measurement": "Levels of adenosine monophosphate (AMP)", "setting": "PBMCs; [5]", "value": "tended to raise"}, {"measurement": "Increase in NMN", "setting": "PBMCs; PBMCs, not significant", "value": "~1.5", "unit": "fold"}, {"measurement": "Elevation of NAD+ levels in PBMCs compared with placebo", "setting": "PBMCs; oral NR supplementation", "value": "about 60%"}]}]}
